Data on two compounds can be found in patent publication US20090209568A1, “Spiro [Benzopyran] or Spiro [Benzofuran] Derivatives Which Inhibit the Sigma Receptor” (priority 2006, published 2009).

Assay [1] relates to capsaicin-induced mechanical allodynia. Description: Effect on capsaicin in development of mechanical allodynia (von Frey filaments). Conditions: 16 mg/kg i.p., mice, 1 μg capsaicin into paw, von Frey mechanical stimulus. The assay is classed as in vivo. As to the method:
This model uses the von-Frey Filaments and is a model to test the effects or symptoms of neuropathic pain, allodynia etc. […] The test protocol for all tests with von Frey filaments: After habituation mice were first treated with the test-compound (or solvent in controls). Then 1 μg capsaicin (1% DMSO) is injected into their paw resulting in developing pain in the effected paw. The effected paw is then treated with a mechanical stimulus and the latency time before the paw is withdrawn is measured.

In assay [2] the target is T1, σ1-receptor (Cavia porcellus, UniProt Q60492).
T1 construct: guinea pig brains were homogenized in 10 vols; (w/v) of Tris-HCl 50 mM 0.32 M sucrose; from tissue; host or cells: guinea pig brain membranes
Put plainly: Sigma-1 receptor radioligand binding, [3H](+)pentazocine (Version A / Version B). Set-up: species or system guinea pig. The settings on record: guinea pig brain membranes; for inhibition at 0.1 µM: compound 10^−7 M; for inhibition at 0.01 µM: compound 10^−8 M. As to the method:
Brain membrane preparation and binding assays for the σ1-receptor were performed as described (DeHaven-Hudkins et al., 1992) with some modifications. In brief, guinea pig brains were homogenized in 10 vols. (w/v) of Tris-HCl 50 mM 0.32 M sucrose, pH 7.4, with a Kinematica Polytron PT 3000 at 15000 r.p.m. for 30 s. The homogenate was centrifuged at 1000 g for 10 min at 4° C. and the supernatants collected and centrifuged again at 48000 g for 15 min at 4° C. The pellet was resuspended in 10 volumes of Tris-HCl buffer (50 mM, pH 7.4), incubated at 37° C. for 30 min, and centrifuged at 48000 g for 20 min at 4° C. Following this, the pellet was resuspended in fresh Tris-HCl buffer (50 mM, pH 7.4) and stored on ice until use.
Each assay tube contained 10 μL of [^3H](+)pentazocine (final concentration of 0.5 nM), 900 μL of the tissue suspension to a final assay volume of 1 mL and a final tissue concentration of approximately 30 mg tissue net weight/mL. Non-specific binding was defined by addition of a final concentration of 1 μM haloperidol. All tubes were incubated at 37° C. for 150 min before termination of the reaction by rapid filtration over Schleicher & Schuell GF 3362 glass fibre filters [previously soaked in a solution of 0.5% polyethylenimine for at least 1 h]. Filters were then washed with four times with 4 mL of cold Tris-HCl buffer (50 mM, pH 7.4). Following addition of scintillation cocktail, the samples were allowed to equilibrate overnight. The amount of bound radioactivity was determined by liquid scintillation spectrometry using a Wallac Winspectral 1414 liquid scintillation counter. Protein concentrations were determined by the method of Lowry et al. (1951).
In brief the σ1-receptor preparation was prepared from guinea pig brain. The brains were homogenized in 5 to 6 times of volume sucrose solution (0.32M) and homogenized. The homogenate was centrifuged at 2900 rpm, 4° C., 10 min). the supernatant was centrifuged again (23500×g, 4° C., 20 min). The pellet was resuspended in Tris-buffer, incubated for 30 min at room temperature and centrifuged f (23500×g, 4° C., 20 min). The pellet was resuspended in cold TRIS-buffer and homogenized. Then the protein content was measured (approx. 1.5 mg/mL) and the homogenate frozen at −80° C. for later use.
The radioligand used was [^3H]-(+)-Pentazocin in TRIS-buffer. In a volume of 200 μL 50 μL TRIS-buffer, 50 μL compound solution of varying concentration, 50 μL radioligand-solution (8 nM; resulting in 2 nM in the assay) and finally 50 μL of receptor preparation (approx. 1.5 mg/mL) were given into a well of a microplate equipped with a filter. The plate was closed and stirred for 2.5 h at 37° C. and 500 rpm. Following that the solvents were removed by a harvester through the filter. After rinsing with H2O the filter was measured in a scintillation counter ([^3H]-protocol).

T1 sequence (Q60492 whole entry): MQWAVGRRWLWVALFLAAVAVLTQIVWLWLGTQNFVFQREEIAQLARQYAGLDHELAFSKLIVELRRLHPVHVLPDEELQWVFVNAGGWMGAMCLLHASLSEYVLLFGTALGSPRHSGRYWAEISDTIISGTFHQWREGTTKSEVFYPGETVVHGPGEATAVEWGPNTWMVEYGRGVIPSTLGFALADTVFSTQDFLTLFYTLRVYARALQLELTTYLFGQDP

For the compound `COC1OC2(CCN(Cc3ccccc3)C2)c2ccccc21` (mixture of isomers) [Example 25, cis/trans-1′-Benzyl-3-methoxy-3H-spiro[[2]benzofuran-1,3′-pyrrolidin]], the “% of pain relief” value in assay [1] is 44.28±9.49%. Further, in assay [2], testing at 0.1 µM gave an inhibition of 88% and the inhibition at 0.01 µM turned out to be 22.2%.

As for `CCCCN1CCC2(C1)OC(OC)Cc1ccccc12` (mixture of isomers) [Example 22, cis/trans-1′-Butyl-3-methoxy-3,4-dihydrospiro[[2]benzopyran-1,3′-pyrrolidin]], in assay [1], the “% of pain relief” value is 45.67±9.62%. In assay [2], the inhibition at 0.1 µM was determined as 52% and the inhibition at 0.01 µM is 29%.
